Reference: patent publication US10059667B2, “Antidiabetic compounds” (MERCK SHARP & DOHME CORP., priority 2014, dated 2018)

Biological target: Human GPR40 (Homo sapiens (Human), UniProt O14842)
Test: Inositol Phosphate Turnover (IP1) Assay 1, HEK cells stably expressing human GPR40, 3H-inositol SPA
Format: cell-based
Settings: HEK cells stably expressing human GPR40, 96-well
Procedure: Human and mouse GPR40 stable cell-lines were generated in CHO cells stably expressing NFAT BLA (Beta-lactamase). A human GPR40 stable cell-line was generated in HEK cells stably expressing the aequorin expressing reporter. The expression plasmids were transfected using lipofectamine (Life Technologies) following manufacturer's instructions. Stable cell-lines were generated following drug selection.
The assay was performed in 96-well format. HEK cells stably expressing human GPR40 were plated to be 60-80% confluent within 72 h. After 72 h, the plates were aspirated and the cells washed with inositol-free DMEM (ICN). The wash media was replaced with 150 μL of 3H-inositol labeling media (inositol-free media containing 0.4% human albumin or 0.4% mouse albumin, 1× pen/strep antibiotics, glutamine, 25 mM HEPES to which was added 3H-myo-inositol NEN #NET114A 1 mCi/mL, 25 Ci/mmol diluted 1:150 in loading media with a final specific radioactivity of 1 μCi/150 μL). Alternatively, the human and mouse albumin can be added after the overnight labeling step before the addition of LiCl.
The assay was typically run the next day after 18 h labeling. On the day of the assay, 5 μL of 300 mM LiCl was added to all wells and incubated at 37 degrees for 20 min. 0.75 μL of each compound was added and incubated with the cells for 60 min at 37 degrees. The media was then aspirated off and the assay terminated with the addition of 60 μL 10 mM formic acid. The cells were lysed for 60 min at room temperature. 15-30 μL of lysate was mixed with 70 μL/1 mg YSi SPA beads (Amersham) in clear bottom Isoplates. The plates were shaken for 2 h at room temperature. Beads were allowed to settle and the plates were counted in the Wallac Microbeta.

Human GPR40, sequence (O14842 whole entry): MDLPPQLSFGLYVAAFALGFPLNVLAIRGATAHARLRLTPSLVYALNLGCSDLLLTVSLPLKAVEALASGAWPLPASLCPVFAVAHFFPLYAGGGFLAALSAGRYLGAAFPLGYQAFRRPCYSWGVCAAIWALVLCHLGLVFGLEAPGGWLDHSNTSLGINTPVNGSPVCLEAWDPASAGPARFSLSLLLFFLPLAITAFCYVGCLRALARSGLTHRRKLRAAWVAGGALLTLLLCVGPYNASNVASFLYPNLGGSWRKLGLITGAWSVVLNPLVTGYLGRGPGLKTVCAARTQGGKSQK

SMILES	EC50
COc1cccc(OC2CC(COc3cccc([C@H](C4CC4)[C@H](C)C(=O)O)c3)C2)c1 (single isomer, unassigned) [Example 65]	22 nM
COc1cccc(OC2CC(COc3cccc([C@H](C4CC4)[C@H](C)C(=O)O)c3)C2)c1 (single isomer, unassigned) [Example 66]	119 nM
COc1ccc(F)c(OC2CC(COc3cccc([C@H](C4CC4)[C@H](C)C(=O)O)c3)C2)c1 (single isomer, unassigned) [Example 80]	12 nM
COc1cccc(C2CC2COc2cccc([C@H](C3CC3)[C@H](C)C(=O)O)c2)c1 (single isomer, unassigned) [Example 83]	94 nM
COc1cc(C2CC(COc3cccc([C@H](C4CC4)[C@H](C)C(=O)O)c3)C2)ccn1 (single isomer, unassigned) [Example 88]	930 nM
COc1cc(C2CC(COc3cccc([C@H](C4CC4)[C@H](C)C(=O)O)c3)C2)ccn1 (single isomer, unassigned) [Example 89]	61 nM
C[C@H](C(=O)O)[C@H](c1cccc(OCC2CC(Oc3ccn[nH]3)C2)c1)C1CC1 (single isomer, unassigned) [Example 98]	1480 nM
C[C@H](C(=O)O)[C@H](c1cccc(OCC2CC(Oc3ccn[nH]3)C2)c1)C1CC1 (single isomer, unassigned) [Example 99]	2670 nM
COc1ccnc(OC2CC(COc3cccc([C@H](C4CC4)[C@H](C)C(=O)O)c3)C2)c1 (single isomer, unassigned) [Example 104]	564 nM
COc1ccnc(OC2CC(COc3cccc([C@H](C4CC4)[C@H](C)C(=O)O)c3)C2)c1 (single isomer, unassigned) [Example 105]	56 nM
C[C@H](C(=O)O)[C@H](c1cccc(OCC2CC(Oc3ccc4c(c3)COC4=O)C2)c1)C1CC1 (single isomer, unassigned) [Example 107]	3450 nM
C[C@H](C(=O)O)[C@H](c1cccc(OCC2CC(Oc3ccc4c(c3)COC4=O)C2)c1)C1CC1 (single isomer, unassigned) [Example 108]	1970 nM
COc1ccc(C)cc1OC1CC(COc2cccc([C@H](C3CC3)[C@H](C)C(=O)O)c2)C1 (single isomer, unassigned) [Example 116]	77 nM
COc1ccc(C)cc1OC1CC(COc2cccc([C@H](C3CC3)[C@H](C)C(=O)O)c2)C1 (single isomer, unassigned) [Example 117]	50 nM
Cc1ccc(F)c(OC2CC(COc3cccc([C@H](C4CC4)[C@H](C)C(=O)O)c3)C2)c1 (single isomer, unassigned) [Example 118]	156 nM
Cc1ccc(F)c(OC2CC(COc3cccc([C@H](C4CC4)[C@H](C)C(=O)O)c3)C2)c1 (single isomer, unassigned) [Example 119]	98 nM
C[C@H](C(=O)O)[C@H](c1cccc(OCC2CC(Oc3cccc(-c4ccccc4)c3)C2)c1)C1CC1 (single isomer, unassigned) [Example 120]	975 nM
C[C@H](C(=O)O)[C@H](c1cccc(OCC2CC(Oc3cccc(-c4ccccc4)c3)C2)c1)C1CC1 (single isomer, unassigned) [Example 121]	561 nM
C[C@H](C(=O)O)[C@H](c1cccc(OCC2CC(Oc3cccc(O)c3)C2)c1)C1CC1 (single isomer, unassigned) [Example 122]	597 nM
C[C@H](C(=O)O)[C@H](c1cccc(OCC2CC(Oc3cccc(O)c3)C2)c1)C1CC1 (single isomer, unassigned) [Example 123]	324 nM
CC(C)Oc1ccccc1OC1CC(COc2cccc([C@H](C3CC3)[C@H](C)C(=O)O)c2)C1 (single isomer, unassigned) [Example 126]	147 nM
CC(C)Oc1ccccc1OC1CC(COc2cccc([C@H](C3CC3)[C@H](C)C(=O)O)c2)C1 (single isomer, unassigned) [Example 127]	182 nM
COc1cccc(F)c1OC1CC(COc2cccc([C@H](C3CC3)[C@H](C)C(=O)O)c2)C1 (single isomer, unassigned) [Example 129]	109 nM
